Measured values reported in patent US11413278B2, “Compounds and methods for promoting stress resistance” (priority 2015, dated 2022).
Entries after “also recorded” stand apart in the source; their conditions may differ. Where two headings read alike, the source gives them in different places.

Experiments:
[1] = test system: phosphorylated γH2A.X and TP53BP1; assay: DNA damage marker analysis (immuno-staining); details: for activity at 10 µM: Homo sapiens, WI-38, 24 h
Outline: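 WI-38 cells were cultured 24 h, then treated with compounds for 24 h; H2O2 (700 μM, 3 h) and doxorubicin (300 nM, 24 h) served as DNA-damage controls. After fixation, cells were immunostained for phospho-γH2A.X (Ser-139) and phospho-TP53BP1 (Ser-1778), counterstained with DAPI, and imaged by automated high-content microscopy.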

mTOR = mTOR inhibition (RPS6 phosphorylation status), In-Cell Western; assay type: cell-based, human; details: for mTOR down-regulation by p-RPS6 assays: Assay 14(q), at 5 uM, 10 uM & 20 uM; for Exp. 1, normalized reduction in p-RPS6/RPS6 ratio / Exp. 3, normalized reduction in p-RPS6/RPS6 ratio: n=4
Outline: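 WI-38 cells exposed to compounds at 5, 10 and 20 μM for 24 hrs. Fixed cells co-stained overnight at 4° C with anti-RPS and anti-pRPS6 (Ser-235/236) antibodies, then DyLight 680/800 secondaries. Phospho-RPS6 relative to total RPS6 read by near-infrared In-Cell Western imaging.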

FOXO3 = FOXO3 siRNA knockdown: dependency for H2O2-resistance; assay type: cell-based, human
WI-38 cells = details: for Assay 1: H2O2-resistant: YES/NO, if NO, possibly due to repeated freezing/thawing of stocks
[2] = read-out: Experiment 1, H2A.X-P DNA damage foci staining (no H2O2 stress treatment), at 10 uM
[3] = read-out: Experiment 2, H2A.X-P DNA damage foci staining (no H2O2 stress treatment), at 10 uM
[4] = read-out: Experiment 2, H2A.X-P DNA damage foci staining (under H2O2 stress treatment), at 10 uM
[5] = read-out: Experiment 2, TP53BP1-P DNA damage foci staining (no H2O2 stress treatment), at 10 uM
[6] = read-out: Experiment 2, TP53BP1-P DNA damage foci staining (under H2O2 stress treatment), at 10 uM
[7] = WI-38 cells, 10 μM, (*) = compromised ability to protect cells from H2O2, could be due to stability issue
[8] = WI-38 cells, 10 uM, normalized ATP measurement
[9] = asterisks indicate the loss of the ability to protect cells from H2O2 over time
[10] = derived from dose response curves, 0.6-20 uM, H2O2-resistance of WI-38 cells
[11] = read-out: Est. ED50, dose response 0.6-20 μM, H2O2-resistance
[12] = negative point, cultured human cells
[13] = Experiment 2, WI-38 cells, 10 μM, 24 hrs, no H2O2, normalized marker-positive fraction, n = 3
[14] = Experiment 2, WI-38 cells, 10 μM, 24 hrs, under H2O2 stress, normalized marker-positive fraction, n = 3

Row | Compound | activity at 10 µM [1, 2] | activity at 10 µM [1, 3] | activity at 10 µM [1, 4] | activity at 10 µM [1, 5] | activity at 10 µM [1, 6] | P = Potential DNA-damaging ([1]; human, 24 h) | R = Potential DNA damaging ([1]; human, 24 h) | G = mTOR down-regulation (mTOR; 2-point score) | G = mTOR down-regulation (mTOR; summary score) | I = FOXO3-dependency for H2O2-resistance (FOXO3; score) | I = FOXO3-dependency for H2O2-resistance (FOXO3; summary score) | H2O2-resistant (WI-38 cells; [7]) | No H2O2 stress treatment, at 10 uM (fold change) (WI-38 cells; [8]) | Assay 1: H2O2-resistant (WI-38 cells) | H2O2-resistant (WI-38 cells; [9]) | EC50 (WI-38 cells; [10]) | EC50 (WI-38 cells; [11]) | R = Potential DNA damaging [1, 12] | P = Potential DNA-damaging ([1]; summary score) | further results
1 | O=C(Nc1cc(C(F)(F)F)ccc1Cl)c1ccc([N+](=O)[O-])o1 [Gr-1B] | 134% | 95.8% | 118% | 211% | 137% | 0 | 0 | 0 | 0 | 0 | 0 | YES | 0.94 fold change | YES | YES | 6.2 µM | 2.65 µM |  |  | 
2 | Oc1ccccc1-c1noc(-c2ccccc2O)n1 [O27] | 122% | 338% | 26.1% | 241% | 379% |  |  | 2 | 2 | 0 | 0 | YES |  | YES | YES | 12.7 µM | 12.7 µM | 1 | 1 | mTOR inhibition (p-RPS6/RPS6), qualitative (mTOR): consistently reduced the ratios; mTOR down-regulation by p-RPS6 assays (mTOR): YES
3 | COc1ccc(C(=O)/C=C/c2cccc(Cl)c2)c(OC)c1 [Gr-4C] | 108% | 135% | 150% | 179% | 444% |  |  | 0 | 0 | 0 | 0 | YES | 1.08 fold change | YES | YES | 8.4 µM | 6.45 µM | 0 | 0 | 
4 | O=C(Nc1ccc(Cl)c(Cl)c1)c1ccc([N+](=O)[O-])o1 [Gr-1G] | 150% | 179% | 63.3% | 256% |  | 0 | 0 | 0 | 0 | 0 | 0 | YES |  | YES | YES | 4.8 µM | 2.95 µM |  |  | 
5 | O=C(NCc1cccnc1)/C(=C\c1ccc(Br)cc1)S(=O)(=O)c1ccccc1 [Gr-7B] | 695% | 348% | 74% | 31.3% | 4.2% | 0 | 0 | 2 | 2 | 0 | 0 | YES (*) | 0.56 fold change | YES | YES (*) |  | 24.7 µM |  |  | mTOR down-regulation by p-RPS6 assays (mTOR): YES; Exp. 1, normalized reduction in p-RPS6/RPS6 ratio (mTOR; Exp. 1, In-Cell Western): ~67% (−), at 20 μM; Exp. 1, normalized reduction in p-RPS6/RPS6 ratio (mTOR; Exp. 1, at 10 μM, In-Cell Western): ~65% (−), at 10 μM;; Exp. 3, normalized reduction in p-RPS6/RPS6 ratio (mTOR; Exp. 3, In-Cell Western): ~53% (−), at 20 μM; Exp. 3, normalized reduction in p-RPS6/RPS6 ratio (mTOR; Exp. 3, at 5 μM, In-Cell Western): ~48% (−), at 5 μM;; Exp. 3, normalized reduction in p-RPS6/RPS6 ratio (mTOR; Exp. 3, at 10 μM, In-Cell Western): ~45% (−), at 10 μM;; mTOR inhibition (p-RPS6/RPS6), qualitative (mTOR; In-Cell Western): mTOR-inhibiting activities; also recorded: consistently reduced the ratios
6 | CCc1ccc(Oc2nc3ccccn3c(=O)c2/C=C(\C#N)C(=O)NCc2ccco2)cc1 [Gr-5B] | 100% | 128% | 168% | 223% | 540% | 0 | 0 | 0 | 0 | 0 | 0 | YES | 1.19 fold change |  | YES | 8.7 µM | 14.3 µM |  |  | 
7 | COc1cc2c(no[n+]2[O-])n2nnnc12 [O11] |  |  |  |  |  |  |  | 0 | 0 | 0 | 0 | YES | 0.75 fold change | YES | YES | 4.4 µM | 4.4 µM | 0 | 0 | Percentage of both γH2A.X- and TP53BP1-positive cells (DNA damage markers) ([1]; 10 μM, 24 hrs, absence of H2O2): did not appear to increase both; Experiment 1, H2A.X-P DNA damage foci staining (no H2O2 stress treatment), at 10 uM ([1]; Experiment 1, WI-38 cells, 10 μM, 24 hrs, no H2O2, normalized marker-positive fraction, n = 3): 83.1%,; Experiment 2, H2A.X-P DNA damage foci staining (no H2O2 stress treatment), at 10 uM [1, 13]: 91.2%,; Experiment 2, TP53BP1-P DNA damage foci staining (no H2O2 stress treatment), at 10 uM [1, 13]: 154.0%,; Experiment 2, H2A.X-P DNA damage foci staining (under H2O2 stress treatment), at 10 uM [1, 14]: 151.7%,; Experiment 2, TP53BP1-P DNA damage foci staining (under H2O2 stress treatment), at 10 uM [1, 14]: 560.5%,; Screen 1: Screening, at 10 uM (viability assay by ATP measurement, normalized fold-change shown, >=2.5) (WI-38 cells; 10 uM, 24 h, then 700 μM H2O2 3 h, normalized to DMSO): 3.42 fold-change; Screen 2: Dose response, at 10 uM (viability assay by ATP measurement, normalized fold-change shown, >=1.5) (WI-38 cells; 10 uM, H2O2 stress): 6.71 fold-change; Screen 3: Dose response, at 20 uM (viability assay by ATP measurement, normalized fold-change shown) (WI-38 cells; 20 uM, H2O2 stress): 3.00 fold-change; Exp. 1, under H2O2 stress treatment, at 10 uM (fold change) (WI-38 cells; Exp. 1, WI-38 cells, 10 uM, normalized ATP measurement (Table 12)): 3.53 fold change; Exp. 2, under H2O2 stress treatment, at 10 uM (fold change) (WI-38 cells; Exp. 2, WI-38 cells, 10 uM, normalized ATP measurement (Table 12)): 2.10 fold change; Experiment 1, WI-38 cells (under H2O2 stress treatment), at 10 uM (fold change) (WI-38 cells; Experiment 1, WI-38 cells, 10 uM (run along with HDF cells)): 2.52 fold change; Experiment 2, WI-38 cells (under H2O2 stress treatment), at 10 uM (fold change) (WI-38 cells; Experiment 2, WI-38 cells, 10 uM (run along with HDF cells)): 28.12 fold change; Dose response retest, at 10 uM (fold change) (WI-38 cells; H2O2-resistance of WI-38 cells, cherry-picked retest, 10 uM): 6.71 fold change; Dose response retest, at 20 uM (fold change) (WI-38 cells; H2O2-resistance of WI-38 cells, cherry-picked retest, 20 uM): 3.00 fold change; Library Screening, at 10 uM (fold change) (WI-38 cells; H2O2-resistance of WI-38 cells, library screening, 10 uM): 3.42 fold change; H2O2 stress treatment (3 hrs), at 10 uM (fold change) (WI-38 cells; WI-38 cells, H2O2 3 hrs, 10 uM, normalized ATP measurement): 7.18 fold change
